Laboratory results from publication PMC7915588, “Polyphyllin D Shows Anticancer Effect through a Selective Inhibition of Src Homology Region 2-Containing Protein Tyrosine Phosphatase-2 (SHP2)” (Molecules, 2021).

Columns and labels:
[1] = target: T1, PTPN18 (PTP-HSCF) (Homo sapiens, UniProt Q99952); experiment: biochemical; design: Fluorogenic phosphatase assay, DiFMUP hydrolysis by recombinant PTPs, initial velocity, Ex/Em 355/460 nm; conditions: read-out: Inhibition by 20 µM polyphyllin D (%)
T1 construct: 1-300
T1 sequence (Q99952 1-460): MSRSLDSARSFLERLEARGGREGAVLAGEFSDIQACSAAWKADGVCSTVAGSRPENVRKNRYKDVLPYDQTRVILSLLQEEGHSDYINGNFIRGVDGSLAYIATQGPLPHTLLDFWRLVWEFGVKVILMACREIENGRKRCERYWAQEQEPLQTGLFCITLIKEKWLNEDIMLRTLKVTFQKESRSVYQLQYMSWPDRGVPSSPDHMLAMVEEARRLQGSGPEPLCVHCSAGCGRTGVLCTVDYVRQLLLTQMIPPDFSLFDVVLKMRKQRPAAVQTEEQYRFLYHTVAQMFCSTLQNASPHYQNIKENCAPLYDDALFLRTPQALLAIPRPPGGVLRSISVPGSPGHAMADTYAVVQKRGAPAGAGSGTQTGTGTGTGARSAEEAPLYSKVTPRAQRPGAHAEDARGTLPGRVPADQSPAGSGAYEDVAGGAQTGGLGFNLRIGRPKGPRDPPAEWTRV

[2] = target: T2, PTPN22 (LYP) (Homo sapiens, UniProt Q9Y2R2); experiment: biochemical; design: Fluorogenic phosphatase assay, DiFMUP hydrolysis by recombinant PTPs, initial velocity, Ex/Em 355/460 nm; conditions: read-out: Inhibition by 20 µM polyphyllin D (%)
T2 construct: 1-326
T2 sequence (Q9Y2R2 1-807): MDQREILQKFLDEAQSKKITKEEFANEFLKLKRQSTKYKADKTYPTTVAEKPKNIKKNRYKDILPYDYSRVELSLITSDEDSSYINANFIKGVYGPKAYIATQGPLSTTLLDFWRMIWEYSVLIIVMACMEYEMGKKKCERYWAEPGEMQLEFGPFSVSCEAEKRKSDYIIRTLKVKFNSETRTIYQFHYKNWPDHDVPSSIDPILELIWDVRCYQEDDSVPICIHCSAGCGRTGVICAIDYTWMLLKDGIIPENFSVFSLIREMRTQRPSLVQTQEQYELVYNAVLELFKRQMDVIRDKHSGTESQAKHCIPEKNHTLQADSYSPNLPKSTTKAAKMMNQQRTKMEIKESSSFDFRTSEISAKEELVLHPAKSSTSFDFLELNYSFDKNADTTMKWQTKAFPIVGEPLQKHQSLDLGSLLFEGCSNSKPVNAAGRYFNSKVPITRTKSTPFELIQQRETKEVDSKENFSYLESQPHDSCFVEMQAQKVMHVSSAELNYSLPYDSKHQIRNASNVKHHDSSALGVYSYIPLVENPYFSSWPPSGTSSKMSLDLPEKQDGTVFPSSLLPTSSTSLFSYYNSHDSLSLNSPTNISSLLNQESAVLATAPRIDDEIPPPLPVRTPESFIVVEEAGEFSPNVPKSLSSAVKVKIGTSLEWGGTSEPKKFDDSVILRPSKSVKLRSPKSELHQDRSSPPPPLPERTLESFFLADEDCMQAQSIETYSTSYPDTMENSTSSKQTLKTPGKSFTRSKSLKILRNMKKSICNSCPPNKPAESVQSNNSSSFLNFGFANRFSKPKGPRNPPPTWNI

## C[C@@H]1CC[C@@]2(OC1)O[C@H]1C[C@H]3[C@@H]4CC=C5C[C@@H](O[C@@H]6O[C@H](CO)[C@@H](O[C@@H]7O[C@@H](CO)[C@H](O)[C@H]7O)[C@H](O)[C@H]6O[C@@H]6O[C@@H](C)[C@H](O)[C@@H](O)[C@H]6O)CC[C@]5(C)[C@H]4CC[C@]3(C)[C@H]1[C@@H]2C [polyphyllin D]
[1]
  inhibition at 20 µM: 14.2%
[2]
  inhibition at 20 µM: 0.1%
